In paper PMC8359946, “Expanding the Substrate Scope of Nitrating Cytochrome P450 TxtE by Active Site Engineering of a Reductase Fusion” (Chembiochem, 2021):

Legend:
[1] = biological target: T1, TxtE (His6-TxtE-BM3R fusion) (Streptomyces scabiei, UniProt C9ZDC6, R59C); experiment: UV-Vis difference spectrum (type II); LC-MS nitration assay with purified enzyme; type: binding
T1 construct: His6-TxtE-BM3R(R59C)

[2] = biological target: T2, TxtE (His6-TxtE-BM3R fusion) (Streptomyces scabiei, UniProt C9ZDC6); experiment: UV-Vis difference spectroscopy titration; purified-enzyme nitration assay; type: binding
T2 construct: His6-TxtE-BM3R fusion with the full length heme-reductase linker (27 aa) from CYP102A1

With `NCCc1c[nH]c2ccccc12` [compound 1, tryptamine] the “UV-Vis difference spectrum (type II); LC-MS nitration assay with purified enzyme” value [1] was “a similar spectrum is observed for binding of tryptamine to His6‐TxtE‐BMR3(R59C)”.
`N[C@@H](Cc1c[nH]c2ccccc12)C(=O)O` [L-tryptophan] showed a Kd [2] of 84 ± 2 µM.
